Measured values: EP0361977A2, “Peptides having T cell suppressor activity” (IMM[…] INSTITUTE, INC., priority 1988, dated 1990)
Where a SMILES comes first, the peptide text is derived from it. The star is where a group is joined. βNA = c1ccc2cc(N*)ccc2c1; NHcHex = C1CCC(N*)CC1; NHPh = c1ccc(N*)cc1; X1 = c1ccc(NN*)cc1; NHiPr = CC(C)N*; For = O=C*

What was measured:
[1] = tested on: CEM cells; assay: Cyclic GMP assay in CEM cells; format: cell-based, human; settings: for induction of intracellular cyclic GMP (active / inactive peptides): CEM cells, dose-response curves from 1 to 1000 micrograms/ml, Fig. 1, composite of 6 experiments, compared with thymopentin; for T cell suppressor activity: thymopentin-like activity, cyclic GMP assays on CEM cells
Source text: This assay measures the ability of a peptide of this invention to bind to the cell membrane receptor of the intact CEM cell and selectively stimulate production of cyclic GMP, as does human thymopentin.
The CEM cell line was obtained from the American Type Culture Collection of Rockville, Md. CEM cells were freshly seeded and grown for 3 days with harvesting as described in T. Audhya et al, Arch. Biochem Biophys., 234: 167-177 (1984). The cells were washed 3 times in PBS and resuspended in RPMI 1640 at a concentration of 1.0 x 10⁷ cells/ml and were allowed to equilibrate at 37°C for 30 minutes before the addition of the test peptides (25 ul) and control peptides. The incubation was allowed to proceed in a shaking water bath for 4-5 minutes and was then terminated by addition of 1 ml ice-cold TCA (10 percent).
The cells in TCA were homogenized and sonicated to release cyclic nucleotide. The suspension was centrifuged at 3000 x g for 20 minutes at 4°C. The resulting precipitate was dissolved in 0.1 N NaOH to determine the protein content. TCA was removed from the supernatant fraction by extracting 4 times with 5 ml of water-saturated ET₂O. After the final extraction, the remaining traces of ether were removed by heating for 10 minutes in a 50°C water bath. After lyophilization the sample was reconstituted in 50 mM acetate buffer (pH 6.2) for radioimmunoassay of cyclic GMP.
For example, dose-response curves from 1 to 1000 micrograms/ml of peptide, were evaluated for each compound. […] A threshold activity was determined for each peptide tested. This is defined as the lowest concentration of the test peptide which induced an intracellular level of cyclic GMP greater than two standard deviations above the control. The controls had intracellular cyclic GMP values of less than 0.9 picomoles/ml (mean±standard deviation). Test results were considered positive if the level of cyclic GMP was greater than 2 times that determined for the parallel negative control. Active peptides had activity thresholds ranging from […].

[2] = tested on: helper T cell activity; settings: mice; cited from earlier work
[3] = tested on: MOLT-4 cells; assay: T cell helper activity, MOLT-4 T cell line (intracellular cGMP); format: cell-based, human; settings: thymopentin-like; assay not described for these peptides

Compound	induction of intracellular cyclic GMP (active / inactive peptides) [1]	helper T cell activity in vivo [2]	T cell helper activity [3]	T cell suppressor activity [1]
CC(C)[C@H](NC(=O)[C@H](CC(=O)O)NC(=O)[C@H](CCCCN)NC(=O)[C@@H](N)CCCNC(=N)N)C(=O)NC1CCCCC1 [Arg-Lys-Asp-Val-Cyclohexylamide] (H-RKDV-NHcHex)	active			
Arg-Lys-Glu-Val-Tyr [SP-5]		stimulates helper T cell activity in vivo in mice		
CC(C)NC(=O)[C@@H](NC(=O)[C@H](CC(=O)O)NC(=O)[C@H](CCCCN)NC(=O)[C@@H](N)CCCNC(=N)N)C(C)C [Arg-Lys-Asp-Val-Isopropylamide, Arg-Lys-Asp-Val-2-propylamide] (H-RKDV-NHiPr)			display both T cell suppressor and helper activities like thymopentin	display both T cell suppressor and helper activities like thymopentin
CC(C)[C@H](NC(=O)[C@H](CC(=O)O)NC(=O)[C@H](CCCCN)NC(=O)[C@@H](N)CCCNC(=N)N)C(=O)Nc1ccccc1 [Arg-Lys-Asp-Val-Anilineamide] (H-RKDV-NHPh)	active			
Arg-Lys-Asp-Val-Piperidineamide	active			
Arg-Lys-Asp-Val-Dimethylamide [reference compound]	inactive			do not display T cell suppressor stimulatory activity of thymopentin
Arg-Pro-Asp-Val-Morpholinoamide [reference compound]				do not display T cell suppressor stimulatory activity of thymopentin
CCNC(=O)[C@@H](NC(=O)[C@H](CCC(=O)O)NC(=O)[C@@H]1CCCN1C(=O)[C@H](CCCNC(=N)N)NC(C)=O)C(C)C [Acetyl-Arg-Pro-Glu-Val-Ethylamide, reference compound] (Ac-RPEV-NHEt)				do not display T cell suppressor stimulatory activity of thymopentin
CC(C)NC(=O)[C@@H](NC(=O)[C@H](CC(=O)O)NC(=O)[C@@H]1CCCN1C(=O)[C@@H](N)CCCNC(=N)N)C(C)C [Arg-Pro-Asp-Val-Isopropylamide] (H-RPDV-NHiPr)	active		display both T cell suppressor and helper activities like thymopentin	display both T cell suppressor and helper activities like thymopentin
CC(C)[C@H](NC(=O)[C@H](CC(=O)O)NC(=O)[C@H](CCCCN)NC(=O)[C@@H](N)CCCNC(=N)N)C(=O)Nc1ccc2ccccc2c1 [Arg-Lys-Asp-Val-2-Naphthylamide, reference compound] (H-RKDV-βNA)	inactive			do not display T cell suppressor stimulatory activity of thymopentin
CNC(=O)[C@@H](NC(=O)[C@H](CC(=O)O)NC(=O)[C@@H]1CCCN1C(=O)[C@H](CCCNC(=N)N)NC=O)C(C)C [Formyl-Arg-Pro-Asp-Val-Methylamide, N-formyl-Arg-Pro-Asp-Val-Methylamide] (For-RPDV-NHMe)			display both T cell suppressor and helper activities like thymopentin	display both T cell suppressor and helper activities like thymopentin
CC(C)[C@H](NC(=O)[C@H](CC(=O)O)NC(=O)[C@H](CCCCN)NC(=O)[C@@H](N)CCCNC(=N)N)C(=O)NNc1ccccc1 [Arg-Lys-Asp-Val-Phenylhydrazide, Arg-Lys-Asp-Val-2-Phenylhydrazide] (H-RKDV-X1)	active			
